Results taken from patent publication US8669254B2, “Pyridine, pyridazine, pyrimidine or pyrazine carboxamides as HDL-cholesterol raising agents” (Hoffman-La Roche Inc., priority 2010, dated 2014).
Like-named read-outs stand apart in the source and are kept apart here.

Tests used:
[1] = target: T1, human CB1 receptor (Homo sapiens, UniProt P21554); assay: CB1 receptor affinity ([3H]-CP-55,940 displacement); type: binding; details: read-out: CB1 receptor affinity [% inhibition @ 10 μM]
T1 construct: expressed in transfected cells; host or cells: human embryonic kidney (HEK) cells, Semliki Forest Virus system, membrane preparation
Experimental: (§1) The affinity of the compounds of the invention for cannabinoid receptors was determined using membrane preparations of human embryonic kidney (HEK) cells in which the human CB1 receptor is transiently transfected using a Semliki Forest Virus system in conjunction with [3H]-CP-55,940 as radioligand. After incubation of freshly prepared cell membrane preparation with the [^3H]-ligand, with or without addition of compounds of the invention, separation of bound and free ligand was performed by filtration over glass fiber filters. Radioactivity on the filter was measured by scintillation counting.
(§2) The ability of the compounds to displace the radioligand [^3H]-CP-55,940 was measured at a concentration of 10 μM and values provided as [% inhibition @ 10 μM] both for the CB 1 and CB2 receptor assay, The lower % inhibition is, the lower the likelihood of side effects based on CB1 or CB2 receptor inhibition is.

[2] = target: T2, human CB2 receptor (Homo sapiens, UniProt P34972); assay: CB2 receptor affinity ([3H]-CP-55,940 displacement); type: binding; details: HEK cell membranes, radioligand [3H]-CP-55,940
T2 construct: expressed in transfected cells; host or cells: human embryonic kidney (HEK) cells, Semliki Forest Virus system, membrane preparation
Experimental: as §1, with “cannabinoid CB2” for “cannabinoid”, “CB2” for “CB1”, “[^3H]-CP-55,940” for “[3H]-CP-55,940”
as §2

[3] = tested on: ABCA1 protein; assay: Detection of upregulation of ABCA1 protein in cells (ApoA-I binding, high content image analysis); type: cell-based; details: THP-1 macrophage cells; for EC50: ABCA1 protein detection assay; for % increase of ABCA1 at 3 μM: compound at 3 μM, 24 hrs
Experimental: The ability of compounds of the invention to increase the level of ABCA1 protein is determined in replicate cultures of THP-1 macrophage cells in 96-well microplates. Cells are plated at an initial density of 100,000 cells/well in 100 μl medium and differentiated to adherent macrophages with the addition of PMA (100 nM) for 68 hrs in 10% fetal bovine serum, 3 μl/L of b-mercaptoethanol, RPMI-1640 medium. Then, cells are incubated with RPMI-1640 medium containing 1% FCS, 25 μg/ml acetylated LDL, for 24 hours at 37°. Following incubation with acetylated LDL, cells are washed twice with 50 μl PBS and incubated with 100 μl of RPMI-1640 medium containing the compound of interest solubilized in DMSO for an additional 24 hrs. The final DMSO concentration in presence of cells is maintained at 0.5%. ApoA-I binding assay using High Content Image Analysis is initiated by replacing with fresh medium, RPMI without Phenol Red, 0.2% BSA containing AlexaFluor®647 labeled ApoA-I for 2 h/37° C./5% CO2. Then, cells are fixed with 4% Formaldehyde in PBS (15 min, RT). Following Nuclei are stained with Hoechst solution (3 μM PBS) and Cytoplasm with Cell Mask Blue (2 μg/ml PBS), 15 min, RT. Finally the stained cells are fixed with a second round of formaldehyde treatment. Fixed stained cells are washed and kept in PBS at 4° C. and can be read immediately until one month after preparation.
The Alexa Fluor 647-labeled Apolipoprotein A-I (20 nM) was prepared as follows: Human recombinant Apolipoprotein A-I (ApoA-I) was exchanged to a buffer of 0.02 M NaHCO3 at pH 8.2 on an NAP desalting column (GE Healthcare) and brought to a concentration to 40 μM (1.13 mg/ml) by adjustment with the same buffer. The ApoA-I was fluorescently labeled by incubation with Alexa Fluor carboxylic acid succimidyl ester (Alexa Fluor 647, Invitrogen A-20006) at a 2:1 molar ratio (Alexa to ApoA-I) for 1 h under shaking at RT). The remaining unconjugated label was removed by buffer exchange to 0.02M NaHCO3 at pH 8.2.
Imaging and data collection were performed on an OPERA confocal microplate imaging reader using a 20× water immersion objective and UV360 or 405 laser to identify the cell nuclei and a 635 laser to identify the fluorescent ApoA-I. Eight fields of view are captured per well. Image capture and analysis was performed with the Acapella software. Background fluorescence detected in control wells without ApoA-I was subtracted.
Using XLfit3 program (ID Business Solutions Ltd. UK), the model 205 for Dose Response One Site is used to calculate the EC50 values. […] Particularly, the compounds of the present invention have EC50 values in a range of 0.1 μM to 3 μM.

[4] = 10 μM, HEK cell membranes, radioligand [3H]-CP-55,940

T1 sequence (P21554 whole entry): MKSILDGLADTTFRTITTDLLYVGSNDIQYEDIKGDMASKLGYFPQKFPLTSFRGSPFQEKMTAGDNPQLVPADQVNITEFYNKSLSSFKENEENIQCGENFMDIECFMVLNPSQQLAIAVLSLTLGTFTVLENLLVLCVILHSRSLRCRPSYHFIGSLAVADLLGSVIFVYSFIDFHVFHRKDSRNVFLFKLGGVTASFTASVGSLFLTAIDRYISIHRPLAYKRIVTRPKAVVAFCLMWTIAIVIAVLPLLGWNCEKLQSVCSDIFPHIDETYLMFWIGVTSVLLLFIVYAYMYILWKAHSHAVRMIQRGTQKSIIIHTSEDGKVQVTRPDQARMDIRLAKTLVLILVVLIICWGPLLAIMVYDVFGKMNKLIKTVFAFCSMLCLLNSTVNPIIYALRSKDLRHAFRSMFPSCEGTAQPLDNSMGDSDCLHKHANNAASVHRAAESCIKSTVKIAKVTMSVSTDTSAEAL
T2 sequence (P34972 whole entry): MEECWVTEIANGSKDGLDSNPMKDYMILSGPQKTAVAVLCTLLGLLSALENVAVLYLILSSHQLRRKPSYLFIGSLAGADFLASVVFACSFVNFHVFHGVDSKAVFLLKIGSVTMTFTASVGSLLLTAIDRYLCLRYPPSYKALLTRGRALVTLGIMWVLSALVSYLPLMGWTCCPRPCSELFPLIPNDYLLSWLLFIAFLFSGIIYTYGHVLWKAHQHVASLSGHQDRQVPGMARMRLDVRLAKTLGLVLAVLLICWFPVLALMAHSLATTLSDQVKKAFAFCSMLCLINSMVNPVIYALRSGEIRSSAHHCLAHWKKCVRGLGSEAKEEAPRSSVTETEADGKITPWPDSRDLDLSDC

Structure (SMILES)	inhibition at 10 µM [1, 4] [%]	inhibition at 10 µM [2] [%]	melting point [°C]	EC50 [3] [µM]	% increase of ABCA1 at 3 μM [3] [% @ 3 μM]	inhibition at 10 µM [1] [%]
CO/N=C1\CCCC[C@@H]1NC(=O)c1cnc(OCC(F)(F)F)c(-c2ccc(Cl)c(Cl)c2)c1 [Example 7, 5-(3,4-Dichloro-phenyl)-N-{(S)-2-[(E)-methoxyimino]-cyclohexyl}-6-(2,2,2-trifluoro-ethoxy)-nicotinamide]		3.56		4.72	84.6	10.5
CO/N=C1\CCCC[C@@H]1NC(=O)c1ccc(OCC(F)(F)F)c(-c2ccc(Cl)cc2)n1 [Example 10, 6-(4-Chloro-phenyl)-5-(2,2,2-trifluoro-ethoxy)-pyridine-2-carboxylic acid {(S)-2-[(E)-methoxyimino]-cyclohexyl}-amide]	0.74	19.2		1.53	45.6	
CO/N=C(/CNC(=O)c1cnc(O[C@@H](C)C(F)(F)F)c(-c2ccc(Cl)cc2)c1)C1CC1 [Example 31, 5-(4-Chloro-phenyl)-N-{2-cyclopropyl-2-[(E)-methoxyimino]-ethyl}-6-((S)-2,2,2-trifluoro-1-methyl-ethoxy)-nicotinamide]		3.6	103 to 106		74.5	39.3
CC(C)O/N=C1\CCCC[C@@H]1NC(=O)c1cnc(OCC2CC2)c(-c2ccc(Cl)cc2)c1 [Example 3, 5-(4-Chloro-phenyl)-6-cyclopropylmethoxy-N-{(S)-2-[(E)-isopropoxyimino]-cyclohexyl}-nicotinamide]	45.7	6.86			66.4	
CO/N=C(/CNC(=O)c1cnc(OCC(F)(F)F)c(-c2ccc(Cl)c(Cl)c2)c1)C(F)(F)F [Example 15, 5-(3,4-Dichloro-phenyl)-6-(2,2,2-trifluoro-ethoxy)-N-{3,3,3-trifluoro-2-[(Z)-methoxyimino]-propyl}-nicotinamide]	32	23.2	124 to 126		50.5	
CO/N=C(/CNC(=O)c1cnc(OCC(F)(F)F)c(-c2ccc(Cl)cc2)c1)C1CC1 [Example 14, 5-(4-Chloro-phenyl)-N-{2-cyclopropyl-2-[(E)-methoxyimino]-ethyl}-6-(2,2,2-trifluoro-ethoxy)-nicotinamide]	48.2	20.9			157.2	

Second part, led by results:

inhibition at 10 µM [1, 4] [%]	inhibition at 10 µM [2] [%]	melting point [°C]	Structure (SMILES)	EC50 [3] [µM]	% increase of ABCA1 at 3 μM [3] [% @ 3 μM]	inhibition at 10 µM [1] [%]
-2	14	147 to 150	CO/N=C(/CNC(=O)c1cc(-c2ccc(Cl)c(Cl)c2)c(OCC(F)(F)F)nn1)C1CC1 [Example 23, (E)-N-(2-cyclopropyl-2-(methoxyimino)ethyl)-5-(3,4-dichlorophenyl)-6-(2,2,2-trifluoroethoxy)pyridazine-3-carboxamide]	0.54	88	
22	31	106 to 109	CO/N=C1\CCCC[C@@H]1NC(=O)c1cc(-c2ccc(Cl)c(Cl)c2)c(OCC(F)(F)F)nn1 [Example 24, 5-(3,4-Dichloro-phenyl)-6-(2,2,2-trifluoro-ethoxy)-pyridazine-3-carboxylic acid {(S)-2-[(E)-methoxyimino]-cyclohexyl}-amide]		85	
21	21	120 to 123	CO/N=C1\CCCC[C@@H]1NC(=O)c1cnc(O[C@@H](C)C(F)(F)F)c(-c2ccc(Cl)cc2)n1 [Example 27, 6-(4-Chlorophenyl)-N-((S,E)-2-(methoxyimino)cyclohexyl)-5-((S)-1,1,1-trifluoropropan-2-yloxy)pyrazine-2-carboxamide]		65	
34.4	18	180 to 182	CO/N=C1\CCCC[C@@H]1NC(=O)c1ncc(O[C@@H](C)C(F)(F)F)c(-c2ccc(Cl)cc2)n1 [Example 28, 4-(4-Chlorophenyl)-N-((S,E)-2-(methoxyimino)cyclohexyl)-5-((S)-1,1,1-trifluoropropan-2-yloxy)pyrimidine-2-carboxamide]	0.78	86.5	
24.1	12.7	119 to 121	CO/N=C1\CCCC[C@@H]1NC(=O)c1cnc(O[C@@H](C)C(F)(F)F)c(-c2ccc(Cl)cc2)c1 [Example 30, 5-(4-Chlorophenyl)-N-((S,E)-2-(methoxyimino)cyclohexyl)-6-((S)-1,1,1-trifluoropropan-2-yloxy)nicotinamide]	0.18	91.3	
35.5	33	123 to 125	CO/N=C1\CCCC[C@@H]1NC(=O)c1cc(-c2ccc(Cl)cc2)c(O[C@@H](C)C(F)(F)F)cn1 [Example 29, 4-(4-Chlorophenyl)-N-((S,E)-2-(methoxyimino)cyclohexyl)-5-((S)-1,1,1-trifluoropropan-2-yloxy)picolinamide]		53.4	
28.8	71.7		CO/N=C(/CNC(=O)c1ncc(OCC2CC2)c(-c2ccc(Cl)cc2)n1)C1CC1 [Example 20, 4-(4-chloro-phenyl)-5-cyclopropylmethoxy-pyrimidine-2-carboxylic acid {2-cyclopropyl-2-[(E)-methoxyimino]-ethyl}-amide]		87.03	
13	9	149 to 152	CO/N=C(/CNC(=O)c1cnc(O[C@@H](C)C(F)(F)F)c(-c2ccc(Cl)cc2)n1)C1CC1 [Example 26, (S,E)-6-(4-Chlorophenyl)-N-(2-cyclopropyl-2-(methoxyimino)ethyl)-5-(1,1,1-trifluoropropan-2-yloxy)pyrazine-2-carboxamide]	1.12	79	
15	29		CO/N=C(/CNC(=O)c1cc(-c2ccc(Cl)cc2)c(OCC(F)(F)F)cn1)C1CC1 [Example 32, (E)-4-(4-chlorophenyl)-N-(2-cyclopropyl-2-(methoxyimino)ethyl)-5-(2,2,2-trifluoroethoxy)picolinamide]		53	
